Assay results: PubChem BioAssay AID248 (DTP/NCI, 2004)
Where “and” joins values, the source holds several entries; their conditions need not be identical. Identical values can stand only once. Inconclusive results and toxic doses are left out. Cut-off read from the data, not from the text of the source: active = T/C of 150% or more; inactive = T/C below 125%.

Tested on: L1210 leukemia ip in BDF1 mice, survival T/C
Experiment: NCI In Vivo Anticancer Drug Screen. Data for tumor model L1210 Leukemia (intraperitoneal) in B6D2F1 (BDF1) mice
Conditions: endpoint: mean survival time, higher = longer survival
Method in brief: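 Tumor cells were implanted, animals were treated, and survival was followed. The result divides the treated measurement by the vehicle-control measurement.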

[1] = dose: 100.0 mg/kg/injection, schedule: Q04DX002 (ip), vehicle: Klucel (hydroxypropylcellulose) (HPC)
[2] = dose: 200.0 mg/kg/injection, schedule: Q04DX002 (ip), vehicle: Klucel (hydroxypropylcellulose) (HPC)
[3] = dose: 100.0 mg/kg/injection, schedule: Q01DX009 (ip), vehicle: saline with Tween-80
[4] = dose: 200.0 mg/kg/injection, schedule: Q01DX009 (ip), vehicle: saline with Tween-80
[5] = dose: 400.0 mg/kg/injection, schedule: Q01DX009 (ip), vehicle: saline with Tween-80
[6] = dose: 100.0 mg/kg/injection, schedule: Q01DX009 (ip), vehicle: saline
[7] = dose: 100.0 mg/kg/injection, schedule: Q04DX003 (ip), vehicle: Klucel (hydroxypropylcellulose) (HPC)
[8] = dose: 200.0 mg/kg/injection, schedule: Q01DX009 (ip), vehicle: saline
[9] = dose: 200.0 mg/kg/injection, schedule: Q04DX003 (ip), vehicle: Klucel (hydroxypropylcellulose) (HPC)
[10] = dose: 100.0 mg/kg/injection, schedule: Q04DX003 (ip), vehicle: saline with Tween-80
[11] = dose: 200.0 mg/kg/injection, schedule: Q04DX003 (ip), vehicle: saline with Tween-80
[12] = dose: 400.0 mg/kg/injection, schedule: Q04DX003 (ip), vehicle: saline with Tween-80
[13] = dose: 25.0 mg/kg/injection, schedule: Q01DX009 (ip), vehicle: saline
[14] = dose: 50.0 mg/kg/injection, schedule: Q01DX009 (ip), vehicle: saline
[15] = dose: 25.0 mg/kg/injection, schedule: Q04DX003 (ip), vehicle: saline
[16] = dose: 50.0 mg/kg/injection, schedule: Q04DX003 (ip), vehicle: saline
[17] = dose: 100.0 mg/kg/injection, schedule: Q04DX003 (ip), vehicle: saline
[18] = dose: 100.0 mg/kg/injection, schedule: Q01DX001 (ip), vehicle: saline
[19] = dose: 200.0 mg/kg/injection, schedule: Q01DX001 (ip), vehicle: saline

Measured: T/C

CCO/C=C1/C(=O)N(C)c2c1c(=O)n(C)c(=O)n2C
inactive: [1] 106 % of control | [2] 109 % of control

CN(C)c1ccc(Cc2ccc(N(C)C)cc2)cc1
inactive: [3] 96 % of control | [4] 94 % of control | [5] 86 % of control

O=C1COC(=O)CO1
inactive: dose: 50.0 mg/kg/injection, schedule: Q04DX003 (ip), vehicle: Klucel (hydroxypropylcellulose) (HPC) 104 % of control | [6] 86 % of control | [7] 100 % of control | [8] 86 % of control | [9] 96 % of control

CCc1ccc(C(=O)C2CC2)cc1
inactive: [3] 102 % of control | [10] 93 % of control | [4] 104 % of control | [11] 96 % of control | [5] 110 % of control | [12] 96 % of control

COC1=CC23CCCN2CCc2cc4c(cc2C3C1OC(C)=O)OCO4 (stereo not given)
inactive: [13] 106 % of control | [14] 106 % of control | [6] 102 % of control

O=C(CN(CCO)CCO)c1ccc([N+](=O)[O-])cc1
inactive: dose: 75.0 mg/kg/injection, schedule: Q01DX001 (ip), vehicle: saline 101 % of control

CN=C(NC)N(C)/N=C/C(C)=N/N(C)C(=NC)NC
inactive: dose: 15.0 mg/kg/injection, schedule: Q01DX Z (ip), vehicle: methylcellulose (MC) 95 % of control | dose: 30.0 mg/kg/injection, schedule: Q01DX Z (ip), vehicle: methylcellulose (MC) 101 % of control | dose: 60.0 mg/kg/injection, schedule: Q01DX Z (ip), vehicle: methylcellulose (MC) 101 % of control | dose: 60.0 mg/kg/injection, schedule: Q01DX Z (oral), vehicle: methylcellulose (MC) 104 % of control | dose: 120.0 mg/kg/injection, schedule: Q01DX Z (oral), vehicle: methylcellulose (MC) 93 % of control | dose: 240.0 mg/kg/injection, schedule: Q01DX Z (oral), vehicle: methylcellulose (MC) 91 % of control | dose: 480.0 mg/kg/injection, schedule: Q01DX Z (oral), vehicle: methylcellulose (MC) 110 % of control | dose: 720.0 mg/kg/injection, schedule: Q01DX Z (oral), vehicle: methylcellulose (MC) 108 % of control

CNCCCN(C)CCCNC
inactive: [13] 100 % of control | [15] 96 % of control | [14] 101 % of control | [16] 104 % of control | [6] 94 % of control | [17] 99 % of control and 102 % of control

CS(=O)(=O)c1nc2ccccc2[nH]1
inactive: [1] 105 % of control | [2] 97 % of control

N#CC1CNC(=S)N=C1c1ccccc1 (stereo not given)
inactive: [7] 100 % of control | [9] 95 % of control

CCc1ccc(C(=O)CCCCl)cc1
inactive: [10] 94 % of control | [11] 100 % of control | [12] 86 % of control

CCCCCc1c(C)nc([N+](=O)[O-])nc1N
inactive: dose: 3.13 mg/kg/injection, schedule: Q01DX001 (ip), vehicle: saline with Tween-80 97 % of control | dose: 6.25 mg/kg/injection, schedule: Q01DX001 (ip), vehicle: saline with Tween-80 101 % of control | dose: 12.5 mg/kg/injection, schedule: Q01DX001 (ip), vehicle: saline with Tween-80 96 % of control

Cc1ccc(S(=O)(=O)C2CCCCC2)cc1
inactive: dose: 50.0 mg/kg/injection, schedule: Q01DX001 (ip), vehicle: carboxymethylcellulose (CMC) 96 % of control | dose: 100.0 mg/kg/injection, schedule: Q01DX001 (ip), vehicle: carboxymethylcellulose (CMC) 107 % of control | dose: 200.0 mg/kg/injection, schedule: Q01DX001 (ip), vehicle: carboxymethylcellulose (CMC) 102 % of control | dose: 400.0 mg/kg/injection, schedule: Q01DX001 (ip), vehicle: carboxymethylcellulose (CMC) 102 % of control

CC(=O)OC(C[N+](=O)[O-])C(Cl)(Cl)Cl (stereo not given)
inactive: dose: 6.25 mg/kg/injection, schedule: Q01DX009 (ip), vehicle: saline sonified 107 % of control | dose: 12.5 mg/kg/injection, schedule: Q01DX009 (ip), vehicle: saline sonified 107 % of control | dose: 12.5 mg/kg/injection, schedule: Q04DX003 (ip), vehicle: Klucel (hydroxypropylcellulose) (HPC) 97 % of control | dose: 25.0 mg/kg/injection, schedule: Q01DX009 (ip), vehicle: saline sonified 106 % of control | dose: 25.0 mg/kg/injection, schedule: Q04DX003 (ip), vehicle: Klucel (hydroxypropylcellulose) (HPC) 103 % of control

COc1ccc(CC(=O)NCCc2ccc3cc(OC)c(OC)cc3c2)cc1OC
inactive: [6] 90 % of control | [8] 86 % of control | dose: 400.0 mg/kg/injection, schedule: Q01DX009 (ip), vehicle: saline 88 % of control

O=C1N=C(c2ccccc2)OC1C(=O)c1ccccc1 (stereo not given)
inactive: [18] 110 % of control | [19] 94 % of control

CC1C2CCC(C2)C1N (stereo not given)
inactive: [13] 96 % of control | [15] 94 % of control | [14] 104 % of control | [16] 105 % of control | [6] 98 % of control | [17] 112 % of control and 92 % of control and 93 % of control | dose: 200.0 mg/kg/injection, schedule: Q04DX003 (ip), vehicle: saline 93 % of control

BrCCOc1ccccc1
inactive: dose: 100.0 mg/kg/injection, schedule: Q01DX009 (ip), vehicle: other 95 % of control | dose: 200.0 mg/kg/injection, schedule: Q01DX009 (ip), vehicle: other 101 % of control

CC1(C)N=C(N)N=C(N)N1c1ccc(OCC(=O)N2CCOCC2)c(Cl)c1
inactive: dose: 12.5 mg/kg/injection, schedule: Q01DX009 (ip), vehicle: saline 98 % of control | [13] 98 % of control | [14] 95 % of control | [6] 101 % of control

CN(C)C(=O)OC(C)(C)C
inactive: dose: 100.0 mg/kg/injection, schedule: Q04DX002 (ip), vehicle: saline 97 % of control | dose: 200.0 mg/kg/injection, schedule: Q04DX002 (ip), vehicle: saline 101 % of control | dose: 400.0 mg/kg/injection, schedule: Q04DX002 (ip), vehicle: saline 97 % of control

COc1ccc2nc3cc(Cl)ccc3c(Nc3ccc(O)c(CN(CCCl)CCCl)c3)c2c1
inactive: dose: 0.3 mg/kg/injection, schedule: Q01DX Z (ip), vehicle: saline 118 % of control | dose: 4.8 mg/kg/injection, schedule: Q01DX Z (ip), vehicle: saline 94 % of control | dose: 5.0 mg/kg/injection, schedule: Q01DX001 (ip), vehicle: saline 111 % of control | dose: 7.5 mg/kg/injection, schedule: Q04DX003 (ip), vehicle: saline 120 % of control | dose: 10.0 mg/kg/injection, schedule: Q01DX001 (ip), vehicle: saline 108 % of control | dose: 20.0 mg/kg/injection, schedule: Q01DX001 (ip), vehicle: saline 104 % of control | [18] 87 % of control

Cn1ncc2c(N(N)CCO)nc(-c3ccc([N+](=O)[O-])o3)nc21
inactive: dose: 50.0 mg/kg/injection, schedule: Q01DX001 (ip), vehicle: saline 108 % of control | [18] 108 % of control | [19] 104 % of control | dose: 400.0 mg/kg/injection, schedule: Q01DX001 (ip), vehicle: saline 117 % of control
